Experimental data from ChEMBL document CHEMBL1201862, “PubChem BioAssay data set” (2004).
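Protocol summary: plate cells (96-well), add compound at 5 concentrations, incubate 48 h, interpolate endpoints linearly. Abbreviation: GI50, concentration required for 50% inhibition of growth.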 Calls of active or inactive are those of the source. Rule as the data show it: active = GI50 up to about 1.1 µM and inactive = higher.

Tests used:
Test in all cases: NCI anticancer screen, dose series, 48 h
[1] = system: UACC-257
[2] = system: OVCAR-3
[3] = system: 786-0
[4] = system: COLO 205
[5] = system: RPMI-8226
[6] = system: NCI-H23
[7] = system: OVCAR-5
[8] = system: Malme-3M
[9] = system: SNB-19
[10] = system: MOLT-4
[11] = system: HCC 2998
[12] = system: SF-539
[13] = system: HL-60
[14] = system: HOP-92
[15] = system: U-251
[16] = system: HOP-62
[17] = system: HCT-15
[18] = system: CAKI-1
[19] = system: UACC-62

SMILES	GI50 [1]	GI50 [2]	GI50 [3]	GI50 [4]	GI50 [5]	GI50 [6]	GI50 [7]	GI50 [8]	GI50 [9]	GI50 [10]	GI50 [11]	GI50 [12]	GI50 [13]	GI50 [14]	GI50 [15]	GI50 [16]	GI50 [17] [µM]	GI50 [18]	GI50 [19]
Cc1ccc2c(c1)C1C(CO2)C(c2ccccc2)=NN1c1ccccc1 (stereo unspecified)	> 100 µM (inactive)	> 100 µM (inactive)	> 100 µM (inactive)	> 100 µM (inactive)	45.7 µM (inactive)	> 100 µM (inactive)	> 100 µM (inactive)	> 100 µM (inactive)	> 100 µM (inactive)	96.2 µM (inactive)	95.5 µM (inactive)	> 100 µM (inactive)	72.3 µM (inactive)	80.5 µM (inactive)	> 100 µM (inactive)	> 100 µM (inactive)			
c1cc(Sc2nc(Sc3ccncc3)nc(Sc3ccncc3)n2)ccn1	> 100 µM (inactive)	> 100 µM (inactive)	> 100 µM (inactive)	> 100 µM (inactive)	> 100 µM (inactive)	> 100 µM (inactive)	> 100 µM (inactive)	> 100 µM (inactive)	> 100 µM (inactive)	> 100 µM (inactive)	> 100 µM (inactive)	> 100 µM (inactive)	> 100 µM (inactive)	> 100 µM (inactive)	> 100 µM (inactive)	> 100 µM (inactive)	> 100	> 100 µM (inactive)	> 100 µM (inactive)
O=c1ccc2ccccc2o1 [COUMARIN]	> 100 µM (inactive)	> 100 µM (inactive)	> 100 µM (inactive)	> 100 µM (inactive)	> 100 µM (inactive)	> 100 µM (inactive)	> 100 µM (inactive)	> 100 µM (inactive)	> 100 µM (inactive)	> 100 µM (inactive)	> 100 µM (inactive)	> 100 µM (inactive)	> 100 µM (inactive)	> 100 µM (inactive)	> 100 µM (inactive)	> 100 µM (inactive)	> 100		> 100 µM (inactive)
CC1=NN(C(=O)c2ccc(Cl)cc2)C(=O)/C1=C/c1cccc([N+](=O)[O-])c1	> 100 µM (inactive)	> 100 µM (inactive)	> 100 µM (inactive)	> 100 µM (inactive)	> 100 µM (inactive)	> 100 µM (inactive)	> 100 µM (inactive)	> 100 µM (inactive)	> 100 µM (inactive)		> 100 µM (inactive)	> 100 µM (inactive)	> 100 µM (inactive)	> 100 µM (inactive)	> 100 µM (inactive)	> 100 µM (inactive)	> 100	> 100 µM (inactive)	> 100 µM (inactive)
Cc1cc(Cl)ccc1NC(=O)CCCC(=O)C(C(=O)c1ccccc1)c1ccccc1 (stereo unspecified)	> 100 µM (inactive)	> 100 µM (inactive)	> 100 µM (inactive)	> 100 µM (inactive)	> 100 µM (inactive)	> 100 µM (inactive)	> 100 µM (inactive)	> 100 µM (inactive)		> 100 µM (inactive)	> 100 µM (inactive)		> 100 µM (inactive)	> 100 µM (inactive)	> 100 µM (inactive)	93.5 µM (inactive)	> 100	> 100 µM (inactive)	> 100 µM (inactive)
COc1ccc(-c2nc3ccccc3c(=S)n2OC(C)=O)cc1	13.1 µM (inactive)		3.09 µM (inactive)	2.38 µM (inactive)	3.27 µM (inactive)	1.95 µM (inactive)	> 25 µM (inactive)	4.76 µM (inactive)	21.1 µM (inactive)	1.15 µM (inactive)	> 25 µM (inactive)	4.89 µM (inactive)	1.04 µM (active)	> 25 µM (inactive)	2.56 µM (inactive)	4.76 µM (inactive)	0.755	5.9 µM (inactive)	2.8 µM (inactive)
